Test results taken from US20090082260A1, “COMBINATION OF AN IMMUNOSUPPRESSANT AND A PPAR GAMMA AGONIST FOR THE TREATMENT OF AN UNDESIRABLE IMMUNE RESPONSE” (priority 2005, published 2009).

System: cardiac allograft
Assay: Cardiac allograft rejection in rats: long term graft survival
Assay type: in vivo, rat
Conditions: for Mean Survival Time, extended data set: Table 10b
Procedure: Animals were obtained from the Animal Resources Centre, Australia. The rats were allowed free access to food and water in a 12-hour light/12-hour dark cycled room. The experimental protocol was approved by the Committee on the Use of Live Animals in Teaching and Research, University of Hong Kong.
Six rats were used in each treatment group.
Recipient rats in TGA received hearts harvested from donor […] strain rats.
Graft survival was analysed using a chi-squared test.
Example 3 was extended to include a number of alternative treatment groups and additional numbers of animals in certain of the treatment groups already investigated.
Table 10b below summarises the graft survival rates, including both the original and supplemental data.

CN(CCOc1ccc(CC2SC(=O)NC2=O)cc1)c1ccccn1 (centres unmarked) [rosiglitazone, 5-[4-[2-(N-methyl-N-(2-pyridyl)amino)ethoxy]benzyl]thiazolidine-2,4-dione]
Graft survival compared with untreated subjects (TGE) (PPAR-gamma agonist alone at a high dose (TGF, 20 mg/kg/day)): does not show any notable difference | Graft survival compared with untreated subjects (TGE) (PPAR-gamma agonist alone at a medium dose (TGB, 5 mg/kg/day)): does not show any notable difference | Mean Survival Time (Table 10, TGA cyclosporin A 20 mg/kg/day i.p. 14 days, TGB rosiglitazone 5 mg/kg/day oral to day 120, TGC both, n=6): 15.8 days | Mean Survival Time, extended data set (TGA cyclosporin A 20 mg/kg/day i.p. 14 days, TGB rosiglitazone 5 mg/kg/day oral, TGC both): 15.8 days | Mean Survival Time, extended data set (TGF high dose rosiglitazone 20 mg/kg/day oral only, n=6): 18.8 days
